In patent US20020103084A1, “Soybean derived pesticide” (priority 2000, published 2002):

Tested on: Persia mites
Experiment: Spray on avocado trees infested with Persia mites
Assay type: in vivo
Conditions: Example 14, diluted 200 times water
Protocol: Soybean extract and soybean slurry prepared as described above are used in the following examples. Many of the following examples involve spraying solutions onto leaves. The amount sprayed in the subsequent examples is quantified as spraying an amount sufficient to totally wet the plant or leaf surface.
The prepared concentrated insecticide is then diluted with 100 times water and thereafter sprayed onto avocado trees infested with Persia mites. A control sample using water was also tested. The results are as follows:
The effectiveness of soybean extract (Sample I) sprayed upon avocado leaves infested with Persia mites is evaluated. Sample I is diluted at both 100 times and 500 times water and thereafter sprayed onto avocado trees infested with Persia mites. A control sample using water was also tested. The results are as follows:
The same samples used in Example 5 are also used in testing effectiveness for control of mites. The samples are diluted with 100 times water and sprayed onto avocado trees infested with Persia mites. Two controls were used: the first, pure water; and, the second, clove oil diluted 100 times with water. The test results are as the following:
The same samples used in Example 7 are also used in testing the control of mites. The samples are diluted with 100 times water and sprayed onto avocado trees infested with Persia mites. The test results are as the following: […]

O=C/C=C/c1ccccc1 [Cinnamic Aldehyde, cinnamic aldehyde]
Mortality (%) (6 days after spray): 57.3% | No. Mites 6 Days After Spray (average number of mites per leaf, avocado trees): 10.8
